Test results: US12410160B2 (Gilead Sciences, Inc., priority 2021, dated 2025)
Like-named read-outs stand apart in the source and are kept apart here.

Legend:
HepG2 cells = assay: F1P Cell-Based Assay (EC50), 13C6-fructose-1-phosphate in HepG2 cells (cell culture medium or 50% human plasma); conditions: Homo sapiens
Experimental: F1P Cell-Based Assay (EC50)
Compounds were serially diluted (1:3) in DMSO. The LabCyte ECHO Acoustic dispenser system was used to pre-spot the assay plates (Greiner, Catalog #781091) with 400 nL (200-fold final dilution in 80 μL assay volume) of compound. 25,000 cells/well HepG2 cells (ATCC Catalog #HB-8065) were plated in a 40 μL volume/well in DMEM medium with 4.5 g/L glucose, 1× Penicillin-Streptomycin-Glutamine, and 10% FBS, using a BioTEK dispenser in a biological hood and incubated overnight at 37° C., 5% CO2, 90% humidity. 40 μL/well serum free assay medium (for F1P assay in cell culture medium), or 40 μL/well 100% human plasma (for F1P assay in 50% human plasma) were then added to the plates on the following day, and incubated for 1 hour at 37° C., 5% CO2, 90% humidity. ^13C6-labelled fructose (Sigma, Catalog #587621) in sterile PBS was added to the plates at a final concentration of 5 mM. The plates were incubated for 2 hours at 37° C., 5% CO2, 90% humidity. The assay was quenched by washing the cells with sterile PBS and adding 60 μL/well of 80% (v/v) methanol, 2 mM ammonium acetate and 2.5 μM Crotonyl-CoA, using a BioTEK washer-dispenser system. The plates were then sealed and stored in the −80° C. freezer until ready for RapidFire readout. ^13C6-fructose-1-phosphate in individual wells was quantified using the Agilent RapidFire High-Throughput MS system in negative mode using a […]. Mobile Phase 1 consisted of 20 mM ammonium acetate with 0.05% acetic acid in 100% methanol. Mobile phase 2 consisted of 5 mM octylamine in water (pH adjusted to 5 using acetic acid). F1P signals in individual wells were normalized by crotonyl CoA internal control.

human KHK-A = human KHK-A (Homo sapiens (Human), UniProt P50053); assay: KHK Biochemical Assay (IC50), ADP-Glo, KHK-A; conditions: ADP-Glo; average of at least two separate assays
Chain of human KHK-A (P50053 other isoform, or with tags, fused parts or gaps): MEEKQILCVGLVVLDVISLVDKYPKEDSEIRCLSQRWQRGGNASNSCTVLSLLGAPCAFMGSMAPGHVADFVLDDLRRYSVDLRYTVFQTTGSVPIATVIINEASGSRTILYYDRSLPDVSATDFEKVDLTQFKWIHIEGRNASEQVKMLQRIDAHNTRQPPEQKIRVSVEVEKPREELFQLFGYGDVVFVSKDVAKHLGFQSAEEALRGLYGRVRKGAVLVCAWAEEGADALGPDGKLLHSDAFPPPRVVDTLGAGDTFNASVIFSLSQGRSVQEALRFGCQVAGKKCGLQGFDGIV
Outline: (§1)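 Luminescent ADP-Glo read-out of ADP made by His-tagged KHK (BL21 (DE3) expression, Ni-NTA). Enzyme and compound sat together 30 min before ATP/fructose addition, then reacted 4 h at RT in Hepes pH 7.4 buffer with KCl, MgCl2, Triton-X. Quench 1 h, detection 1 h.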

human KHK-C = human KHK-C (Homo sapiens (Human), UniProt P50053); assay: KHK Biochemical Assay (IC50), ADP-Glo, KHK-C; conditions: ADP-Glo; average of at least two separate assays
Chain of human KHK-C (P50053 whole entry): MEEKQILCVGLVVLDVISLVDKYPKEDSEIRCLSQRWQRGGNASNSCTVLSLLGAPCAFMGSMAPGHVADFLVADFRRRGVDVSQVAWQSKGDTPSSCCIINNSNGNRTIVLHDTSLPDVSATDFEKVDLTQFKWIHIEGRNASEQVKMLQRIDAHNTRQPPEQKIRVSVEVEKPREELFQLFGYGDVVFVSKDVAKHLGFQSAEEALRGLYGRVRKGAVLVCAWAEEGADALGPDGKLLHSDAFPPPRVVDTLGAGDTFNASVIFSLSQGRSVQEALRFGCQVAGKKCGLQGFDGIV
Outline: as §1

[1] = HepG2, HepG2 cells, 50% human plasma, read-out: F1P 50% HP EC50
[2] = HepG2, read-out: F1P 10% FBS EC50, HepG2 cells, cell culture medium (10% FBS)

Molecule: C[C@H]1[C@H](O)CN1c1nc(-c2ccc(OC(F)F)c(S(C)(=N)=O)c2)c2c(n1)C(F)(F)CC2 (stereo partly drawn) [Example 532]
- EC50 (HepG2 cells; [1]): 55.1 nM
- EC50 (HepG2 cells; [2]): 5.1 nM

Molecule: C[C@H]1[C@H](O)CN1c1nc(-c2ccc3c(c2)OC(C(F)F)CNC3=O)c2c(n1)C(F)(F)CC2 (stereo partly drawn) [Example 597, 8-(7,7-difluoro-2-((2S,3R)-3-hydroxy-2-methylazetidin-1-yl)-6,7-dihydro-5H-cyclopenta[d]pyrimidin-4-yl)-2-(difluoromethyl)-3,4-dihydrobenzo[f][1,4]oxazepin-5(2H)-one]
- EC50 (HepG2 cells; [1]): 34.4 nM
- EC50 (HepG2 cells; [2]): 16 nM

Molecule: C[C@H]1[C@H](O)CN1c1nc(-c2ccc3c(c2)C(NS(C)(=O)=O)CO3)c2c(n1)C(F)(F)CC2 (stereo partly drawn) [Example 613]
- EC50 (HepG2 cells; [1]): 26 nM
- EC50 (HepG2 cells; [2]): 14.5 nM

Molecule: C[C@H]1[C@H](O)CN1c1nc(-c2cccc(-n3cnnc3)c2)c2c(n1)C(F)(F)CC2 [Example 619, (2S,3R)-1-(4-(3-(4H-1,2,4-triazol-4-yl)phenyl)-7,7-difluoro-6,7-dihydro-5H-cyclopenta[d]pyrimidin-2-yl)-2-methylazetidin-3-ol]
- EC50 (HepG2 cells; [1]): > 500 nM
- EC50 (HepG2 cells; [2]): 77.3 nM

Molecule: CCS(=O)(=O)N[C@H]1COc2cc(-c3nc(N4C[C@@H](O)[C@@H]4C)nc4c3CCC4(F)F)ccc21 [Example 624, N—((R)-6-(7,7-difluoro-2-((2S,3R)-3-hydroxy-2-methylazetidin-1-yl)-6,7-dihydro-5H-cyclopenta[d]pyrimidin-4-yl)-2,3-dihydrobenzofuran-3-yl)ethanesulfonamide]
- EC50 (HepG2 cells; [1]): 282 nM
- EC50 (HepG2 cells; [2]): 129 nM

Molecule: C[C@H]1CCN1c1nc2c(c(-c3cccc(S(=N)(=O)CC(=O)N4CCC4)c3)n1)CCC2 (stereo partly drawn) [Example 877, (2-(azetidin-1-yl)-2-oxoethyl)(imino)(3-(2-((S)-2-methylazetidin-1-yl)-6,7-dihydro-5H-cyclopenta[d]pyrimidin-4-yl)phenyl)-λ^6-sulfanone]
- IC50 (human KHK-A): 186 nM
- IC50 (human KHK-C): 208 nM

Molecule: C[C@H]1CCN1c1nc2c(c(-c3cccc(S(=N)(=O)c4ccccc4)c3)n1)CCC2 (stereo partly drawn) [Example 878, imino(3-(2-((S)-2-methylazetidin-1-yl)-6,7-dihydro-5H-cyclopenta[d]pyrimidin-4-yl)phenyl)(phenyl)-λ^6-sulfanone]
- IC50 (human KHK-A): 37.8 nM
- IC50 (human KHK-C): 86.9 nM

Molecule: C[C@H]1CCN1c1nc2c(c(-c3cccc(S(=N)(=O)c4ccc(C#N)cc4)c3)n1)CCC2 (stereo partly drawn) [Example 879, 4-(3-(2-((S)-2-methylazetidin-1-yl)-6,7-dihydro-5H-cyclopenta[d]pyrimidin-4-yl)phenylsulfonimidoyl)benzonitrile]
- IC50 (human KHK-A): 41.6 nM
- IC50 (human KHK-C): 46.7 nM

Molecule: COc1ccc(-c2nc(N3CC[C@@H]3C)nc3c2CCC3)cc1S(=N)(=O)CCN(C)C(C)=O (stereo partly drawn) [Example 881, N-(2-(2-methoxy-5-(2-((S)-2-methylazetidin-1-yl)-6,7-dihydro-5H-cyclopenta[d]pyrimidin-4-yl)phenylsulfonimidoyl)ethyl)-N-methylacetamide]
- IC50 (human KHK-A): 46 nM
- IC50 (human KHK-C): 70.5 nM

Molecule: C[C@H]1CCN1c1nc2c(c(-c3ccc4c(c3)C(NS(C)(=O)=O)CCO4)n1)CCC2 (stereo partly drawn) [Example 883, N-(6-(2-((S)-2-methylazetidin-1-yl)-6,7-dihydro-5H-cyclopenta[d]pyrimidin-4-yl)chroman-4-yl)methanesulfonamide]
- IC50 (human KHK-A): 21 nM
- IC50 (human KHK-C): 14.6 nM

Molecule: CCC1Oc2cc(-c3nc(N4CC[C@@H]4C)nc4c3CCC4)ccc2C1NS(C)(=O)=O (stereo partly drawn) [Example 884, N-(2-ethyl-6-(2-((S)-2-methylazetidin-1-yl)-6,7-dihydro-5H-cyclopenta[d]pyrimidin-4-yl)-2,3-dihydrobenzofuran-3-yl)methanesulfonamide]
- IC50 (human KHK-A): 96.2 nM
- IC50 (human KHK-C): 46.1 nM

Molecule: C[C@H]1CCN1c1nc2c(c(-c3ccc4c(c3)CC(F)C4NS(C)(=O)=O)n1)CCC2 (stereo partly drawn) [Example 885, N-(2-fluoro-5-(2-((S)-2-methylazetidin-1-yl)-6,7-dihydro-5H-cyclopenta[d]pyrimidin-4-yl)-2,3-dihydro-1H-inden-1-yl)methanesulfonamide]
- IC50 (human KHK-A): 150 nM
- IC50 (human KHK-C): 26.1 nM

Molecule: C[C@@H]1Oc2cc(-c3nc(N4CC[C@@H]4C)nc4c3CCC4)ccc2[C@H]1NS(C)(=O)=O [Example 886, N-((2s,3r)-2-methyl-6-(2-((S)-2-methylazetidin-1-yl)-6,7-dihydro-5H-cyclopenta[d]pyrimidin-4-yl)-2,3-dihydrobenzofuran-3-yl)methanesulfonamide]
- IC50 (human KHK-A): 27.1 nM
- IC50 (human KHK-C): 13.2 nM

Molecule: C[C@@H]1Oc2cc(-c3nc(N4CC[C@@H]4C)nc4c3CCC4)ccc2[C@@H]1NS(C)(=O)=O [Example 887, N-((2s,3s)-2-methyl-6-(2-((S)-2-methylazetidin-1-yl)-6,7-dihydro-5H-cyclopenta[d]pyrimidin-4-yl)-2,3-dihydrobenzofuran-3-yl)methanesulfonamide]
- IC50 (human KHK-A): 44.4 nM
- IC50 (human KHK-C): 10.5 nM

Molecule: C[C@H]1CCN1c1nc2c(c(-c3ccc4c(c3)C(O)CC4NS(C)(=O)=O)n1)CCC2 (stereo partly drawn) [Example 888, N-(3-hydroxy-5-(2-((S)-2-methylazetidin-1-yl)-6,7-dihydro-5H-cyclopenta[d]pyrimidin-4-yl)-2,3-dihydro-1H-inden-1-yl)methanesulfonamide]
- IC50 (human KHK-A): 51.3 nM
- IC50 (human KHK-C): 4.1 nM

Molecule: Cc1cc(-c2nc(N3CC[C@@H]3C)nc3c2CCC3)cc2c1C(NS(C)(=O)=O)CO2 (stereo partly drawn) [Example 889, N-(4-methyl-6-(2-((S)-2-methylazetidin-1-yl)-6,7-dihydro-5H-cyclopenta[d]pyrimidin-4-yl)-2,3-dihydrobenzofuran-3-yl)methanesulfonamide]
- IC50 (human KHK-A): 98.8 nM
- IC50 (human KHK-C): 17.1 nM

Molecule: C[C@H]1CCN1c1nc2c(c(-c3ccc4c(c3)CCCC4NS(C)(=O)=O)n1)CCC2 (stereo partly drawn) [Example 890, N-(6-(2-((S)-2-methylazetidin-1-yl)-6,7-dihydro-5H-cyclopenta[d]pyrimidin-4-yl)-1,2,3,4-tetrahydronaphthalen-1-yl)methanesulfonamide]
- IC50 (human KHK-A): 141 nM
- IC50 (human KHK-C): 60.8 nM

Molecule: CC1Cc2cc(-c3nc(N4CC[C@@H]4C)nc4c3CCC4)ccc2C1NS(C)(=O)=O (stereo partly drawn) [Example 891, N-(2-methyl-5-(2-((S)-2-methylazetidin-1-yl)-6,7-dihydro-5H-cyclopenta[d]pyrimidin-4-yl)-2,3-dihydro-1H-inden-1-yl)methanesulfonamide]
- IC50 (human KHK-A): 167 nM
- IC50 (human KHK-C): 59.5 nM

Molecule: COC1Cc2cc(-c3nc(N4CC[C@@H]4C)nc4c3CCC4)ccc2C1NS(C)(=O)=O (stereo partly drawn) [Example 892, N-(2-methoxy-5-(2-((S)-2-methylazetidin-1-yl)-6,7-dihydro-5H-cyclopenta[d]pyrimidin-4-yl)-2,3-dihydro-1H-inden-1-yl)methanesulfonamide]
- IC50 (human KHK-A): 330 nM
- IC50 (human KHK-C): 99.5 nM

Molecule: C[C@H]1CCN1c1nc2c(c(-c3ccc4c(c3)CC(C(F)(F)F)C4NS(C)(=O)=O)n1)CCC2 (stereo partly drawn) [Example 893, N-(5-(2-((S)-2-methylazetidin-1-yl)-6,7-dihydro-5H-cyclopenta[d]pyrimidin-4-yl)-2-(trifluoromethyl)-2,3-dihydro-1H-inden-1-yl)methanesulfonamide]
- IC50 (human KHK-A): 1780 nM
- IC50 (human KHK-C): 733 nM

Molecule: CC1CC(NS(C)(=O)=O)c2ccc(-c3nc(N4CC[C@@H]4C)nc4c3CCC4)cc21 (stereo partly drawn) [Example 894, N-(3-methyl-5-(2-((S)-2-methylazetidin-1-yl)-6,7-dihydro-5H-cyclopenta[d]pyrimidin-4-yl)-2,3-dihydro-1H-inden-1-yl)methanesulfonamide]
- IC50 (human KHK-A): 106 nM
- IC50 (human KHK-C): 20.5 nM

Molecule: Cc1cc(-c2nc(N3CC[C@@H]3C)nc3c2CCC3)cc2c1C(NS(C)(=O)=O)CC2 (stereo partly drawn) [Example 895, N-(7-methyl-5-(2-((S)-2-methylazetidin-1-yl)-6,7-dihydro-5H-cyclopenta[d]pyrimidin-4-yl)-2,3-dihydro-1H-inden-1-yl)methanesulfonamide]
- IC50 (human KHK-A): 175 nM
- IC50 (human KHK-C): 38.1 nM

Molecule: NC1(c2ccc(-c3nc(N4CC[C@@H]4C(F)(F)F)nc4c3CCC4(F)F)s2)COC1 [Example 896, (R)-3-(5-(7,7-difluoro-2-(2-(trifluoromethyl)azetidin-1-yl)-6,7-dihydro-5H-cyclopenta[d]pyrimidin-4-yl)thiophen-2-yl)oxetan-3-amine]
- IC50 (human KHK-A): 2.1 nM
- IC50 (human KHK-C): 1.7 nM

Molecule: (S)-4-(2-(2-methylazetidin-1-yl)-6,7-dihydro-5H-cyclopenta[d]pyrimidin-4-yl)pyridine-2-sulfonamide [Example 224]
- IC50 (human KHK-A): 155 nM
- IC50 (human KHK-C): 114 nM
